Assays:
Format in all cases: cell-based, human
[1] = tested on: Notch target genes HES1, HES5 and c-MYC; assay: qPCR of Notch target genes in HEK293T cells; conditions: mRNA, qPCR (FIG. 4O)
JURKAT and HSB2 cells [2] = assay: Cell viability, cell counting kit-8 assay; conditions: JURKAT and HSB2, concentration gradient, 36 h, CCK-8 (FIG. 12L)
Protocol: (§1) FBXO42-KO cells were rescued with WT FBXO42 or F-box deletion mutant and were used in the following studies. (A-C) The mRNA levels of Notch target genes in the treated HEK293T (A), JURKAT (B) and HSB2 (C) cells were determined by qPCR. (D-G) The invasion abilities of the treated JURKAT (D) and HSB2 (F) cells were evaluated using a 3D culture system with Matrigel. Scale bars, 50 μm. The respective average diameter of the spheres in D and F was summarized, respectively (E and G). (H-K) Anchorage-independent growth of the rescued JURKAT (H) and HSB2 (J) cells was measured using a soft agar colony formation assay. The number of colonies in H and J was counted and summarized, respectively (I and K). (L) JURKAT and HSB2 cells were treated with MLN4924 in a concentration-gradient manner for 36 h and then evaluated for the cell viability using cell counting kit-8 assay. (M and N) The expression of Notch target genes in MLN4924-treated JURKAT (M) and HSB2 (N) cells were determined by qPCR. (O-R) Anchorage-independent growth of MLN4924-treated JURKAT (0) and HSB2 (Q) cells was measured using soft agar colony formation assays. The number of colonies was counted and summarized (P and R). (A-R, n=3) The data are shown as the mean±SEM from the independent experiments. P values were calculated using one-way ANOVA for multiple comparisons or two-tailed Student's t-tests. *P<0.05, ** P<0.01, *** P<0.001.

[3] = tested on: FBXO42-mediated K63-linked polyubiquitination of RBPJ; assay: In vivo ubiquitination assay of RBPJ in transfected HEK293T cells; conditions: DMSO or MLN4924, western blotting (FIG. 4K)
Protocol: (A) cSFB-RBPJ, hemagglutinin-ubiquitin (HA-Ub) and Myc-FBXO42 WT were cotransfected into HEK293T cells as indicated and treated with or without MG132 for 4 h. The cell lysates were incubated with S beads and analyzed by western blotting for RBPJ polyubiquitination detection. (B) Immunoprecipitated endogenous RBPJ products from WT and FBXO42 KO cells were immunoblotted for Ub. (C) cSFB-RBPJ, hemagglutinin-ubiquitin (HA-Ub) and Myc-FBXO42 WT or AF mutant were cotransfected into HEK293T cells. The cell lysate was collected and analyzed for RBPJ polyubiquitination. (D) HEK293T cells were transfected with cSFB-RBPJ, Myc-FBXO42 and HA-Ub with or without FLAG-NICD1 overexpression. The cell lysates were incubated with S beads and analyzed by western blotting for RBPJ polyubiquitination detection. […] The degree of RBPJ polyubiquitination was evaluated as described above. […] The cell lysates were incubated with S beads and analyzed by western blotting for RBPJ polyubiquitination detection. […] (J) Quantitation of the results shown in (I). […] The cell lysates were analyzed for RBPJ ubiquitination. […] (P) Efficiency of RBPJ short interfering RNAs (siRNAs) detected via western blotting. […] Quantitative data are presented as mean±SEM. P values were calculated using two-tailed Student's t-tests or ANOVA for multiple comparison. *P<0.05, **P<0.01, ***P<0.001, ##P<0.01 vs. FBXO42. […]

JURKAT and HSB2 cells [4] = assay: Soft agar colony formation assay (anchorage-independent growth); conditions: JURKAT and HSB2, soft agar colony formation (FIG. 12O-R)
Protocol: as §1

## NS(=O)(=O)OC[C@@H]1C[C@@H](n2ccc3c(N[C@H]4CCc5ccccc54)ncnc32)C[C@@H]1O [MLN4924]
[1]
  expression of Notch target genes HES1, HES5 and c-MYC: suppressed
JURKAT and HSB2 cells [2]
  cell viability of leukemia cells: diminished
[3]
  FBXO42-mediated K63-linked polyubiquitination of RBPJ: effectively abrogated
JURKAT and HSB2 cells [4]
  anchorage-independent growth of leukemia cells: diminished

Reference: patent US20260023068A1, “USE OF A FBXO42 SPECIFIC INHIBITOR IN TREATING NOTCH SIGNALING-DEPENDENT DISEASE” (WESTLAKE UNIVERSITY, priority 2022, published 2026)
